Assays:
SARS-CoV-2 nsp14 [1] = target: T1, SARS-CoV-2 nsp14 (Severe acute respiratory syndrome coronavirus 2, UniProt P0DTD1); assay: Nsp14 RapidFire MS high-throughput screening assay; assay type: biochemical
nsp14 N7-MTase = conditions: read-out: IC50 nsp14 N7-MTase activity; cited from earlier work
SAR-CoV = conditions: cited from earlier work
SARS-CoV-2 nsp14 [2] = target: T1, SARS-CoV-2 nsp14; assay: biochemical; assay type: biochemical
SARS-CoV-2 = conditions: read-out: EC50 blocking SARS-CoV-2 in vitro infections; cited from earlier work
[3] = target: human homolog RNA RNMT (RNMT:RAM) (Homo sapiens, UniProt O43148); assay: RNMT assay under similar conditions to the nsp14 RapidFire assay; assay type: biochemical
human homolog RNA RNMT (RNMT:RAM), sequence (O43148 whole entry): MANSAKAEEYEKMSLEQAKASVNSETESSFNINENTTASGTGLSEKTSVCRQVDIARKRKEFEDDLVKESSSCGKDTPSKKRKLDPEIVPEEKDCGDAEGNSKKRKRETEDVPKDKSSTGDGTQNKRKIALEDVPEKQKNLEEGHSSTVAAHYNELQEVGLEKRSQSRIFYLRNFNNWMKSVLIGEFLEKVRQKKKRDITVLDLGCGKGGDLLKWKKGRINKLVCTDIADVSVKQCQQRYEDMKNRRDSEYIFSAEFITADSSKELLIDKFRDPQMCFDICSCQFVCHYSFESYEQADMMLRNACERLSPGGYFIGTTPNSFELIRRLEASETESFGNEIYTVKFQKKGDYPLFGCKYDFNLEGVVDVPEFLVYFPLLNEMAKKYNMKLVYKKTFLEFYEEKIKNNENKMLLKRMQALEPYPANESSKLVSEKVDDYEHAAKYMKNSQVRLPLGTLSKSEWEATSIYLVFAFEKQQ
human homolog RNA RNMT (RNMT:RAM), sequence (Q9BTL3 1-90 partner limits assumed): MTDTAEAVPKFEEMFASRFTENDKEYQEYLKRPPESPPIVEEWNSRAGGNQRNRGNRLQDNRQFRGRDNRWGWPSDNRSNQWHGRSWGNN

[4] = hydrolysis to the active metabolite tizoxanide; cited from earlier work
[5] = humans; with minimal gastrointestinal side effects; cited from earlier work

Structure (SMILES): O=C1C=CC(=O)N1c1cccc(F)c1 [N-(3-fluorophenyl)maleimide]
- percentage effect on nsp14 activity (SARS-CoV-2 nsp14 [1]; single concentration of 10 µM): greater than 50%

Structure (SMILES): Nc1ncnc2c1ncn2[C@@H]1O[C@H](CSCC[C@H](N)C(=O)O)[C@@H](O)[C@H]1O [S-adenosyl-L-homocysteine]
- IC50 (nsp14 N7-MTase): 16 µM

Structure (SMILES): O=C(O)C1=CC(=C(c2ccc(O)c(C(=O)O)c2)c2ccc(O)c(C(=O)O)c2)C=CC1=O [aurintricarboxylic acid]
- effect on SAR-CoV replication in infected cells (SAR-CoV): limit SAR-CoV replication in infected cells
- IC50 (nsp14 N7-MTase): 6.4 µM

Structure (SMILES): O=c1c(O)c(-c2ccc(O)cc2)oc2cc(O)cc(O)c12 [kaempferol]
- IC50 (SARS-CoV-2 nsp14 [1]): 28 µM

Structure (SMILES): CC(=O)Oc1ccccc1C(=O)Nc1ncc([N+](=O)[O-])s1 [nitazoxanide]
- IC50 (SARS-CoV-2 nsp14 [2]): 132 µM
- inhibition of N7-guanosine cap methylation (SARS-CoV-2 nsp14 [2]): Forty-nine
- shift in activity between cap MTase assay and primary biochemical assay (SARS-CoV-2 nsp14 [2]; orthogonal versus RapidFire assay): 10 fold
- EC50 (SARS-CoV-2): 2.12 µM
- IC50 [3]: > 100 µM
- metabolic fate following oral administration [4]: rapidly hydrolyzed
- tolerated single dose [5]: up to 4 g
- Emax at 100 µM (SARS-CoV-2 nsp14 [1]; read-out: maximal effect, dose response, top concentration 100 µM): 89.7%

Structure (SMILES): O=C(Nc1ncc([N+](=O)[O-])s1)c1ccccc1O [tizoxanide]
- IC50 (SARS-CoV-2 nsp14 [1]): 54.8 µM
